In patent publication US5837728A, “9-cis retinoic acid esters and amides and uses thereof” (priority 1995, dated 1998) one finds Sebaceous gland reduction and ODC activity reduction data, which are given here for two compounds.

The subject of one assay is sebaceous gland. In words: Oral hamster sebaceous gland reduction assay. The format is in vivo, male Syrian golden hamsters. Further details: key to the marks not given beside the values. The settings on record: 32 mg/kg. Here is the method: An oral assay for hamster sebaceous gland reduction is conducted.
Hamsters are dosed orally with the test compound and vehicle alone. The reduction in sebaceous gland size is estimated microscopically in relation to the control. The assay is unique and proprietary to Ortho Pharmaceutical Corp. and is based upon the work of Plewig et al. (1977) and Gomex et al. (1980). Plewig, et al., Hamster Ear Model for Sebaceous Glands, J. Invest. Derm. 68: 171-176 (1977). Gomez, et al., Effect of 13-cis-Retinoic Acid on the Hamster Flank Organ, J. Invest. Derm. 74: 392-397 (1980).
For oral (p.o.) studies, male Syrian golden hamsters are […] at 5 ml/kg, once daily, five consecutive days/week for two or three weeks. Modified but similar dosing schedules could be used. Control hamsters are dosed with vehicle alone at 5 ml/kg. Following final treatment (up to 72 hours), the hamsters are sacrificed in a CO2 atmosphere. Samples of each test site are placed into 10% buffered formalin and histologically prepared. Serial sections of each sample are stained (H&E) and examined microscopically.
The reduction in sebaceous gland size is estimated microscopically in relation to the control treated sites. To quantify sebaceous gland size, cross-sectional areas are measured with an image analyzer system.

In assay [1] the test system is ornithine decarboxylase (ODC). In words: ODC/Retinoid Bioassay: inhibition of TPA induced ornithine decarboxylase activity. To be noted: topical, TPA induced. Type of assay: in vivo, CD-1 mice. Here is the method: The ODC/Retinoid Bioassay is based on the method of Verma, A. K. and Boutwell, R. K., Cancer Res. (1977) 37:2196-2201. The ODC assay measures a compounds effect on the prevention of the induction of ODC, namely the effect of the retinoid compound on the inhibition of the tumor promoter 12-O-tetradecanoylphorbol-13-acetate (TPA) induced ODC activity. The assay is carried out using CD-1 mice (aged 7 to 9 weeks). The dorsal hair of the mice is shaved 3-4 days before testing. Four mice are used for each point. The test retinoids, at one of two dose levels (1.7 and 17 nmoles) dissolved in 0.2 ml of acetone is applied topically to the back of each shaved mouse. A single dose of TPA ([…]) is applied to the back of each treated mouse 30 minutes later. Control groups are treated with either acetone alone, TPA, or tretinoin. The mice are sacrificed by cervical dislocation 5 hours after TPA treatment.
The dorsal skin encompassing the shaved and TPA exposed area is excised and placed in a 100 ml beaker containing distilled water maintained at 51° C.-57° C. The skin is soaked for 50-70 seconds at this temperature with intermittent stirring. The skin is placed epidermis side up in a chilled (0°-5° C.) stainless steel plate and the epidermal layer is scraped off with a razor blade. The epidermal layers from the 4 mice are pooled and placed in a homogenization tube with 2 ml of ODA buffer ([…] with […] pyridoxal phosphate, […] ethylenediaminetetraacetic acid (EDTA), 1 mM dithiothreitol, pH 7.5). The pooled epidermal layers are homogenized for 15 seconds at 0° C. using a Polytron homogenizer at a setting of 7.5. The homogenate is centrifuged at 30,000×g and the supernatant fraction is pipetted into a storage tube and frozen for about 72 hours.
The homogenate is assayed for ODC activity as described by Verma and Boutwell to measure the release of ^14 CO2 from labeled DL(1-14C) ornithine. Incubations are carried out in disposable centrifuge tubes with center well holders containing filter paper impregnated with sodium hydroxide to absorb ^14 CO2. The incubation mixture consisted of 90 μl of L-ornithine, 350 μl of ODC buffer, 100 μl of 14C-ornithine (1.32 nm, Sp. Act:4.4 pCi/pM) and 10 μl of test sample. After incubation at 37° C. for 45 minutes, 0.5 ml of 2M chilled citric acid (4° C.) is added and incubation is continue for an additional 30 minutes to insure complete absorption of ^14 CO2. The filter paper is removed from the center well holders and set in 1 ml of water in capped scintillation vials for at least 1 hour before adding RBI 3820 scintillation cocktail. Radioactivity is measured in a Tri Carb Scintillation Counter. Results are expressed as pmol of ^14 CO2 released in 30 minutes per milligram of protein based on the specific activity of DL-14C-ornithine. The results are expressed in Table 2 below as the % reduction in ODC activity as compared to the control, for the compounds of each of the preceding Examples: […]

The mark [2] stands for this setting: 17.0 nM (as printed in Table 2).

Structures are written as SMILES.

For the compound `COc1ccc(C(=O)COC(=O)/C=C(C)/C=C/C=C(C)\C=C\C2=C(C)CCCC2(C)C)cc1` [Compound 2, 2-(9-cis-retinoyloxy)-4'-methoxyacetophenone], in the assay with sebaceous gland, the Sebaceous gland reduction entry was “+++”. Also, the ODC activity reduction result in assay [1] (1.7 nM (as printed in Table 2)) was “++”; in assay [1] (setting [2]), “+++”.

As for `CC1=C(/C=C/C(C)=C/C=C/C(C)=C/C(=O)O)C(C)(C)CCC1` [all-trans-retinoic acid, reference compound], the Sebaceous gland reduction result in the assay on sebaceous gland is given as “+++”. For the same compound, in assay [1] (setting [2]), the ODC activity reduction entry is given as “+++”.
